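Exposure lasted 48 hours, with cells grown in 96-well plates and compounds tested at five concentrations. Here, GI50 denotes the concentration required for 50% inhibition of growth.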 Active and inactive are the calls of the source. Rule as the data show it: active = GI50 up to about 1.1 µM and inactive = higher.
Experiments:
Test in all cases: inhibition of tumour cell growth, NCI panel, 48 h
IGROV-1 = system: IGROV-1
HT-29 = system: HT-29
SNB-75 = system: SNB-75
HCT-15 = system: HCT-15
XF498 = system: XF498
SK-MEL-5 = system: SK-MEL-5
OVCAR-5 = system: OVCAR-5
SF-539 = system: SF-539
SK-MEL-2 = system: SK-MEL-2
MDA-MB-231 = system: MDA-MB-231
HOP-18 = system: HOP-18
MOLT-4 = system: MOLT-4
SR = system: SR
DU-145 = system: DU-145
OVCAR-4 = system: OVCAR-4
PC-3 = system: PC-3
LOX IMVI = system: LOX IMVI
KM12 = system: KM12
Hs-578T = system: Hs-578T
SK-OV-3 = system: SK-OV-3
RPMI-8226 = system: RPMI-8226
RXF 393 = system: RXF 393
U-251 = system: U-251
OVCAR-8 = system: OVCAR-8
MCF7 = system: MCF7
A549 = system: A549
MDA-MB-435 = system: MDA-MB-435
RXF 631 = system: RXF 631
HOP-62 = system: HOP-62
SNB-19 = system: SNB-19
NCI-H23 = system: NCI-H23
BT-549 = system: BT-549
UACC-62 = system: UACC-62
HCT-116 = system: HCT-116
UACC-257 = system: UACC-257
NCI/ADR-RES = system: NCI/ADR-RES
SF-268 = system: SF-268
T47D = system: T47D
DLD-1 = system: DLD-1
NCI-H522 = system: NCI-H522
KM-20L2 = system: KM-20L2
NCI-H226 = system: NCI-H226
A498 = system: A498
786-0 = system: 786-0
SNB-78 = system: SNB-78
EKVX = system: EKVX
HCC 2998 = system: HCC 2998
NCI-H460 = system: NCI-H460
MDA-N = system: MDA-N
COLO 205 = system: COLO 205
SN12C = system: SN12C
HOP-92 = system: HOP-92
HL-60 = system: HL-60
K562 = system: K562
OVCAR-3 = system: OVCAR-3
LXFL 529 = system: LXFL 529
Malme-3M = system: Malme-3M
SW-620 = system: SW-620
DMS-273 = system: DMS-273
UO-31 = system: UO-31
SF-295 = system: SF-295
M14 = system: M14
TK-10 = system: TK-10
CCRF-CEM = system: CCRF-CEM
SK-MEL-28 = system: SK-MEL-28
CAKI-1 = system: CAKI-1
DMS-114 = system: DMS-114
ACHN = system: ACHN
M19-MEL = system: M19-MEL

COC1C(C)OC(OC2CC(C)(O)Cc3cc4c(c(O)c32)C(=O)c2c(O)cc3c(c2C4=O)OC2OC3(C)C(O)C(N(C)C)C2O)C(OC)C1(C)OC (stereo unspecified)
GI50 (IGROV-1): 19.7 nM (active)
GI50 (HT-29): 24.3 nM (active)
GI50 (SNB-75): 16.5 nM (active)
GI50 (HCT-15): 8.49 nM
GI50 (XF498): 16.5 nM (active)
GI50 (SK-MEL-5): 23.7 nM (active)
GI50 (OVCAR-5): 62.8 nM (active)
GI50 (SF-539): 3.48 nM (active)
GI50 (SK-MEL-2): 15.8 nM (active)
GI50 (MDA-MB-231): 1.29 nM (active)
GI50 (HOP-18): 110 nM (active)
GI50 (MOLT-4): 4.69 nM (active)
GI50 (SR): 3.85 nM (active)
GI50 (DU-145): 0.809 nM (active)
GI50 (OVCAR-4): 190 nM (active)
GI50 (PC-3): 0.204 nM (active)
GI50 (LOX IMVI): 3.16 nM (active)
GI50 (KM12): 5.27 nM (active)
GI50 (Hs-578T): 0.0579 nM (active)
GI50 (SK-OV-3): 136 nM (active)
GI50 (RPMI-8226): 15 nM (active)
GI50 (RXF 393): 4.63 nM (active)
GI50 (U-251): 2.85 nM (active)
GI50 (OVCAR-8): 4.96 nM (active)
GI50 (MCF7): 33.1 nM (active)
GI50 (A549): 4.98 nM (active)
GI50 (MDA-MB-435): 1.02 nM (active)
GI50 (RXF 631): 155 nM (active)
GI50 (HOP-62): 52.7 nM (active)
GI50 (SNB-19): 3.78 nM (active)
GI50 (NCI-H23): 4.96 nM (active)
GI50 (BT-549): 0.257 nM (active)
GI50 (UACC-62): 16 nM (active)
GI50 (HCT-116): 15 nM (active)
GI50 (UACC-257): 5.53 nM (active)
GI50 (NCI/ADR-RES): 2210 nM (inactive)
GI50 (SF-268): 4.84 nM (active)
GI50 (T47D): 0.029 nM (active)
GI50 (DLD-1): 119 nM (active)
GI50 (NCI-H522): 4.47 nM (active)
GI50 (KM-20L2): 29.9 nM (active)
GI50 (NCI-H226): 50.8 nM (active)
GI50 (A498): 25.6 nM (active)
GI50 (786-0): 86.1 nM (active)
GI50 (SNB-78): 28.2 nM (active)
GI50 (EKVX): 40.9 nM (active)
GI50 (HCC 2998): 34.2 nM (active)
GI50 (NCI-H460): 3.45 nM (active)
GI50 (MDA-N): 0.53 nM (active)
GI50 (COLO 205): 17.9 nM (active)
GI50 (SN12C): 37.8 nM (active)
GI50 (HOP-92): 33.3 nM (active)
GI50 (HL-60): 5.41 nM (active)
GI50 (K562): 4.38 nM (active)
GI50 (OVCAR-3): 5.16 nM (active)
GI50 (LXFL 529): 31.8 nM (active)
GI50 (Malme-3M): 56.1 nM (active)
GI50 (SW-620): 4.57 nM (active)
GI50 (DMS-273): 15 nM (active)
GI50 (UO-31): 411 nM (active)
GI50 (SF-295): 4.7 nM (active)
GI50 (M14): 4.79 nM (active)
GI50 (TK-10): 5.27 nM (active)
GI50 (CCRF-CEM): 4.75 nM (active)
GI50 (SK-MEL-28): 5.57 nM (active)

Cc1ccc(NC(=O)CC(=O)n2nc(-c3ccccc3)c(/N=N\c3ccccc3[N+](=O)[O-])c2-c2ccccc2)cc1
GI50 (IGROV-1): > 100000 nM (inactive)
GI50 (HT-29): > 100000 nM (inactive)
GI50 (SNB-75): 69300 nM (inactive)
GI50 (XF498): 37500 nM (inactive)
GI50 (SK-MEL-5): 57500 nM (inactive)
GI50 (OVCAR-5): > 100000 nM (inactive)
GI50 (SF-539): 37200 nM (inactive)
GI50 (SK-MEL-2): > 100000 nM (inactive)
GI50 (HOP-18): > 100000 nM (inactive)
GI50 (MOLT-4): > 100000 nM (inactive)
GI50 (SR): > 100000 nM (inactive)
GI50 (OVCAR-4): 45300 nM (inactive)
GI50 (LOX IMVI): 93500 nM (inactive)
GI50 (KM12): > 100000 nM (inactive)
GI50 (SK-OV-3): 80200 nM (inactive)
GI50 (RPMI-8226): > 100000 nM (inactive)
GI50 (RXF 393): 55100 nM (inactive)
GI50 (U-251): 52500 nM (inactive)
GI50 (OVCAR-8): 67500 nM (inactive)
GI50 (CAKI-1): 69700 nM (inactive)
GI50 (A549): 90200 nM (inactive)
GI50 (RXF 631): 27600 nM (inactive)
GI50 (HOP-62): 82200 nM (inactive)
GI50 (SNB-19): 56600 nM (inactive)
GI50 (NCI-H23): > 100000 nM (inactive)
GI50 (UACC-62): > 100000 nM (inactive)
GI50 (HCT-116): 70300 nM (inactive)
GI50 (UACC-257): > 100000 nM (inactive)
GI50 (DMS-114): 84500 nM (inactive)
GI50 (SF-268): 51200 nM (inactive)
GI50 (DLD-1): 77800 nM (inactive)
GI50 (NCI-H522): 74800 nM (inactive)
GI50 (KM-20L2): > 100000 nM (inactive)
GI50 (786-0): 28400 nM (inactive)
GI50 (SNB-78): > 100000 nM (inactive)
GI50 (EKVX): > 100000 nM (inactive)
GI50 (ACHN): 89300 nM (inactive)
GI50 (HCC 2998): > 100000 nM (inactive)
GI50 (NCI-H460): 35800 nM (inactive)
GI50 (COLO 205): > 100000 nM (inactive)
GI50 (SN12C): > 100000 nM (inactive)
GI50 (HOP-92): 28200 nM (inactive)
GI50 (HL-60): 86500 nM (inactive)
GI50 (K562): > 100000 nM (inactive)
GI50 (OVCAR-3): 82800 nM (inactive)
GI50 (LXFL 529): 38600 nM (inactive)
GI50 (Malme-3M): 86100 nM (inactive)
GI50 (SW-620): > 100000 nM (inactive)
GI50 (DMS-273): 44000 nM (inactive)
GI50 (UO-31): > 100000 nM (inactive)
GI50 (SF-295): 29000 nM (inactive)
GI50 (M14): > 100000 nM (inactive)
GI50 (M19-MEL): > 100000 nM (inactive)
GI50 (TK-10): > 100000 nM (inactive)
GI50 (CCRF-CEM): > 100000 nM (inactive)
GI50 (SK-MEL-28): > 100000 nM (inactive)
